Source: patent US20230331679A1, “NAPHTHALENE MONOIMIDE COMPOUNDS AND METHODS THEREOF” (JAWAHARLAL NEHRU CENTRE FOR ADVANCED SCIENTIFIC RESEARCH, priority 2020, published 2023)

Experiments:
[1] = target: T1, Aβ42 (Homo sapiens, UniProt P05067); test: ThT binding assay, inhibition of Aβ42 fibrillar assembly; assay type: biochemical; settings: for inhibitory effect on Aβ42 aggregation (ThT NFI at 482 nm): 1:1 molar ratio, 10 µM Aβ42, 10 µM inhibitor, 72 h; for decrease in the formation of Aβ aggregates: Aβ42/inhibitor 1:1, Aβ42 10 µM; for decrease in the formation of Aβ aggregates / Aβ aggregation decreased to: third day of incubation
T1 construct: commercially available β-amyloid peptide (1-42), human; purchased marck (so in the source) PP69-.025 mg
T1 sequence (P05067 672-713 limits assumed): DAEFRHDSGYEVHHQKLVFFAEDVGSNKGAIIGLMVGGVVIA
Method: (§1) Monomeric form of Aβ42 peptide was prepared by dissolving 0.25 mg of commercially available β-amyloid peptide (1-42), human (cat: PP69-.025 mg), marck peptide in 250 µL of hexafluoro-2-propanol (HFIP) solvent to obtain a Aβ42 solution. This solution was incubated at room temperature for 1 hour, further to which the HFIP solvent was removed by nitrogen gas flow to obtain the monomeric Aβ42 peptide. To prepare a fibrillar sample of Aβ42 peptide, 0.025 mg of Aβ42 peptide was dissolved in […] of PBS buffer (pH = 7.4; contains 2% of DMSO or 100 mM NaOH) to obtain a monomeric Aβ42 solution and the peptide concentration in this solution was calculated through UV-Visible absorbance studies (ε = 1450 cm^-1 M^-1). The Aβ42 monomeric solution was incubated for 5 days in PBS buffer (pH = 7.4) to allow for the full phase formation of Aβ42 fibrils. The presence of Aβ42 fibrils was further confirmed by ThT assay.
Initially, the ability of the prepared NMI compounds, TGR63-68 to inhibit Aβ42 fibrillar assembly at 1:1 molar ratio with Aβ42 fibrils was evaluated using thioflavin (ThT) binding assay. 10 µM of Aβ42 fibrils in the absence (Ctrl) and the presence of 10 µM of inhibitors individually were incubated for 72 h. A normalized data for fluorescence intensity (NFI) of ThT at 482 nm (λex = 442 nm) was measured as represented in FIG. 1(a).
(§2) The ability of NMI compounds (TGR63, TGR64 and TGR65) to prevent Aβ42 fibrillar assembly (inhibition) and to break down the preformed fibrils (dissolution) was evaluated using thioflavin (ThT) binding assay. Aβ42 fibrils at a concentration of 10 µM and its aggregates, were used to study the effect of NMI compounds (TGR63, TGR64 and TGR65) at varying concentrations on both inhibition and dissolution assays. For the inhibition assay, all the NMI compounds (TGR63, TGR64 and TGR65) were added independently to Aβ peptide (10 µM) at 0 h of the experiment, whereas for the aggregates dissolution assay they were added to Aβ42 fibrillar aggregates grown for 2 days. Upon incubating for a predetermined period, Aβ42 inhibitor samples were analyzed using ThT by measuring the fluorescence change at 485 nm as presented in FIG. 1(b) and FIG. 1(c), wherein the error bars represent the standard deviation (SD) of the fluorescence measurement. Fluorescence values were normalized to maximal fluorescence intensity at 485 nm compared to that of the control (Aβ42 with no inhibitor). Experiments were performed at various stoichiometric ratios (Aβ42/inhibitor) of 1:1, 1:2, and 1:5 with a fixed concentration of Aβ42 at 10 µM. Each experiment was repeated three times (n = 3). […] TGR 63 recorded 80% dissolution efficiency while TGR 64 and TGR 65 recorded 75% and 78% dissolution efficiency respectively, for the stoichiometric ratio of 1:5.

[2] = target: T2, Aβ42 fibrillar aggregates (Homo sapiens, UniProt P05067); test: ThT binding assay, dissolution of preformed Aβ42 fibrils; assay type: biochemical; settings: after sixth day of incubation
T2 construct: commercially available β-amyloid peptide (1-42), human; purchased marck (so in the source) PP69-.025 mg
T2 sequence (P05067 672-713 limits assumed): as above
Method: as §1, §2

[3] = target: α-Syn (Homo sapiens, UniProt P37840); test: ThT binding assay, α-Syn aggregation inhibition; assay type: biochemical
From the text: Parkinson’s disease (PD) is a neuronal disorder, mainly affects the motor system. α-Syn is a presynaptic neuronal protein that is linked neuropathologically to PD plays a vital role in the pathogenesis in a number of ways. Self-aggregation of α-Syn to form fibrillar aggregates and these toxic species mediate disruption of cellular homeostasis and cause neuronal death. These toxic aggregates affect various intracellular targets, especially synaptic function. In this context, NMI compounds of the present disclosure were used to study the possible modulation of α-Syn aggregation. The effect of NMI compounds (TGR63 and TGR64) on α-syn (100 µM) aggregation inhibition was studied through ThT binding assay. Experiments were performed at stoichiometric ratios (α-Syn:inhibitor) of 1:1, 1:2, and 1:5 with the fixed concentration of α-Syn at 100 µM.

[4] = system: PC12 cells; test: Rescue of PC12 cells from Aβ42 toxicity (MTT cell viability assay); settings: for viability at 40 µM: Rattus norvegicus, PC-12, 24 h, read-out: cell viability, PC12 cells, Aβ42 20 µM + compound 40 µM, 24 h; for enhancement in the viability of cells from Aβ toxicity: versus Aβ42 alone (54%)
Method: A 96-well plate was used to culture the cells (15,000 per well) with RPMI media (10% fetal bovine serum (FBS), 5% horse serum (HS,), and 1% pen-strep (PS)) at 37° C. temperature in a 5% CO2 atmosphere. Then the media was exchanged with low serum (2% FBS) media and monomeric Aβ42 was added in the absence and presence of NMI compounds and incubated for 24 h.
The structure-activity relationship (SAR) of NMI compounds towards rescuing PC12 cells from Aβ toxicity was investigated. […] Each experiment was repeated three times (n = 3), and error bars represent the standard deviation (SD).
An Alzheimer’s disease-like environment was mimicked by exposing the cultured PC12 cells to 20 µM of Aβ42 fibrils, which formed cytotoxic aggregation species in the growth media.

Row | SMILES | inhibitory effect on Aβ42 aggregation (ThT NFI at 482 nm) [1] | decrease in the formation of Aβ aggregates [1] | Aβ aggregation decreased to ([1]; Aβ42/inhibitor 1:2, Aβ42 10 µM) | Aβ aggregation decreased to ([1]; Aβ42/inhibitor 1:5, Aβ42 10 µM) | dissolution efficiency ([2]; Aβ42/inhibitor 1:1, Aβ42 10 µM) | dissolution efficiency ([2]; Aβ42/inhibitor 1:2, Aβ42 10 µM) | dissolution efficiency ([2]; Aβ42/inhibitor 1:5, Aβ42 10 µM) | decrease in the formation of α-Syn aggregates ([3]; α-Syn:inhibitor 1:1, α-Syn 100 µM) | α-Syn aggregation decreased to ([3]; α-Syn:inhibitor 1:2, α-Syn 100 µM) | α-Syn aggregation decreased to ([3]; α-Syn:inhibitor 1:5, α-Syn 100 µM) | cell viability ([4]; PC12 cells, Aβ42 20 µM + compound 40 µM, 24 h, Aβ42 alone 54%, untreated 100%) | viability at 40 µM ([4]; Aβ42 alone 54%, untreated 100%) | enhancement in the viability of cells from Aβ toxicity ([4]; PC12 cells)
1 | C[N+](C)(C)CCN1C(=O)c2cccc3cccc(c23)C1=O [TGR66, 2-(1,3-dioxo-1H-benzo[de]isoquinolin-2(3H)-yl)-N,N,N-trimethylethan-1-aminium] | ~ 10% |  |  |  |  |  |  |  |  |  |  |  | ~ 26%
2 | C[N+](C)(C)CCN1C(=O)c2cccc3c(C#Cc4ccccc4)ccc(c23)C1=O [TGR68, 2-(1,3-dioxo-6-(phenylethynyl)-1H-benzo[de]isoquinolin-2(3H)-yl)-N,N,N-trimethylethan-1-aminium] | ~5% |  |  |  |  |  |  |  |  |  |  |  | ~8%
3 | CN(C)c1ccc2c3c(cccc13)C(=O)N(CC[N+](C)(C)C)C2=O [TGR67, 2-(6-(dimethylamino)-1,3-dioxo-1H-benzo[de]isoquinolin-2(3H)-yl)-N,N,N-trimethylethan-1-aminium] | ~7% |  |  |  |  |  |  |  |  |  |  |  | ~22%

The next lines start with results.

Row | inhibitory effect on Aβ42 aggregation (ThT NFI at 482 nm) [1] | decrease in the formation of Aβ aggregates [1] | Aβ aggregation decreased to ([1]; Aβ42/inhibitor 1:2, Aβ42 10 µM) | Aβ aggregation decreased to ([1]; Aβ42/inhibitor 1:5, Aβ42 10 µM) | dissolution efficiency ([2]; Aβ42/inhibitor 1:1, Aβ42 10 µM) | dissolution efficiency ([2]; Aβ42/inhibitor 1:2, Aβ42 10 µM) | dissolution efficiency ([2]; Aβ42/inhibitor 1:5, Aβ42 10 µM) | decrease in the formation of α-Syn aggregates ([3]; α-Syn:inhibitor 1:1, α-Syn 100 µM) | α-Syn aggregation decreased to ([3]; α-Syn:inhibitor 1:2, α-Syn 100 µM) | α-Syn aggregation decreased to ([3]; α-Syn:inhibitor 1:5, α-Syn 100 µM) | SMILES | cell viability ([4]; PC12 cells, Aβ42 20 µM + compound 40 µM, 24 h, Aβ42 alone 54%, untreated 100%) | viability at 40 µM ([4]; Aβ42 alone 54%, untreated 100%) | enhancement in the viability of cells from Aβ toxicity ([4]; PC12 cells)
4 | ~38% | ~ 50% | 75% | 90% | ~ 35% | ~ 50% | 75% | ~ 54% | 72% | 77% | CN(C)c1ccc(C#Cc2ccc3c4c(cccc24)C(=O)N(CCN)C3=O)cc1 [TGR64, 2-(2-aminoethyl)-6-((4-(dimethylamino)phenyl)ethynyl)-1H-benzo[de]isoquinoline-1,3(2H)-dione] | 76% | 78% | 
5 | ~25% | ~ 50% | 75% | 90% | ~ 35% | ~ 50% | 78% |  |  |  | CN(C)c1ccc(C#Cc2ccc3c4c(cccc24)C(=O)N(CCOCCO)C3=O)cc1 [TGR65, 6-((4-(dimethylamino)phenyl)ethynyl)-2-(2-(2-hydroxyethoxy)ethyl)-1H-benzo[de]isoquinoline-1,3(2H)-dione] |  | 62% | 
